Values quoted from earlier work in patent US20020095197A1, “Application of photochemotherapy for the treatment of cardiac arrhythmias” (priority 2000, published 2002).

Tested on: vascular wall (adventitia, media, intima)
Conditions: photochemotherapy with Photofrin applied; literature report (Gonschior et al. 1997)

porfimer sodium [Photofrin]
inflammatory cells in vessel wall layers following vascular trauma: presence of inflammatory cells in the adventitia (outermost layers), but not in the media or intima
